# Columns and labels:
# [1] = Weight and food intake during treatment in chow; format: in vivo, mice; settings: 0.4% w/w in AIN-76A chow, either treatment protocol (3 months from 9 months; 4 months from 13 months)
# Method: (§1) The bile acid tauroursodeoxycholic acid TUDCA (Prodotti Chimici e Alimentari S.p.A., Italy) was mixed into AIN-76A chow (Dyets) at 0.4% w/w. Male mice were randomly assigned to one of the following groups: wild-type mice (n=10) that received normal AIN-76A chow, Abcd1^-/- mice (n=10) that received normal AIN-76A chow and Abcd1^-l- mice (n=10) that received AIN-76A chow containing TUDCA. The animals were treated for 3 months starting at 9 months of age to assess its effect on the progression of the biochemical signs of X-linked adrenoleukodystrophy. The double knockout mice and their control littermates were randomly assigned to one of the following groups: wild-type mice (n=10) that received normal AIN-76A chow; double knockout mice (n =10) that received normal AIN-76A chow; and double knockout mice (n =10) that received AIN-76A chow containing TUDCA. The animals were treated for 4 months starting at 13 months of age to coincide with the onset of clinical signs. TUDCA had no effect on weight or food intake under either treatment protocol.
# Abcd1^-/Abcd2^-/- mice [2] = test: Immunohistochemistry of axonal degeneration, microgliosis and astrocytosis in spinal cord; format: in vivo; settings: 17-month-old double knockout mice, 0.4% w/w TUDCA in chow for 4 months from 13 months of age
# Method: as §1
# […] Immunohistochemistry was carried out with the avidin-biotin peroxidase method and at least five sections of the spinal cord were analysed per animal and per stain. […] The results were expressed as the mean ± standard deviation. […]
# Abcd1^-/Abcd2^-/- mice [3] = test: Bar cross test; format: in vivo; settings: double knockout mice with TUDCA; Figure 3C
# Method: (§2) The bile acid tauroursodeoxycholic acid TUDCA (Prodotti Chimici e Alimentari S.p.A., Italy) was mixed into AIN-76A chow (Dyets) at 0.4% w/w. Male mice were randomly assigned to one of the following groups: wild-type mice (n=10) that received normal AIN-76A chow, Abcd1^-/- mice (n=10) that received normal AIN-76A chow and Abcd1^-l- mice (n=10) that received AIN-76A chow containing TUDCA. The animals were treated for 3 months starting at 9 months of age to assess its effect on the progression of the biochemical signs of X-linked adrenoleukodystrophy. […]
# (§3) For behavioral testing, assessment of hindlimb clasping was done by suspending mice from their tails until it reached a vertical position, but allowing the mice to grab the grill of the lid of the cage with the forelimbs, adapted from Dumser et al. cited supra. Hindlimb reflex was analysed for 10s in three consecutive trials separated by 5 min rest. […]
# (§4) Locomotor deficits in Abcd1 /Abcd2^-/- mice were evaluated using clasping, treadmill and bar cross experiments after TUDCA treatment as described (Dumser M- et al., 2007 cited supra, Launay N. et al., 2015 cited supra). […]
# Abcd1 null mice = test: Immunoblot (Western blot) of ER stress and UPR markers in spinal cords of X-ALD mice; format: in vivo; settings: diet with 0.4 % (wt/wt) TUDCA for 3 months
# Excerpt: The generation and genotyping of Abcd1 null mice have been previously described (Pujol A. et al., Hum Mol Genet 2002; 11:499-505, Lu JF. et al., Proc.Natl.Acad.Sci.U.S.A 1997; 94:9366-9371.). Mice used for experiments were of a pure C57BL/6J background. Abcd1 null and WT mice were separated into control and treated groups. Treated groups were fed with a mixture of antioxidants that included 1000 iu/kg Vitamin E and 0.5% α-lipoic acid in the diet and 1% N-acetyl-cysteine (NAC) in water. Daily feedings were initiated at 8 months of age and were continued for 4 months until sacrifice.
# as §2
# Tissues were lysed in ice-cold RIPA buffer (50 mM Tris-HCl, pH 8, 12 mM deoxycholic acid, 150 mM NaCl and 1% NP40, supplemented with Complete Protease Inhibitor Cocktail, Roche) using a Teflon-on-glass homogenizer and then centrifuged at 1500 x g for 10 min at 4°C. The protein concentration was determined using a BCA protein assay kit (Thermo Fisher Scientific, Inc.). […]
# To determine whether ER stress is regulated by redox imbalance in vivo, the inventors treated with antioxidants during 4 months the presymptomatic Abcd1 null mice at 8 months of age. Next, they assessed by Western Blots the presence of ER stress and UPR responses.
# The mouse model of the disease, the Abcd1 null mouse, develops a late onset axonopathy that resembles the most frequent X-linked adrenoleukodystrophy phenotype, AMN. […] Then, the inventors determined the protein levels of ER stress marker dysregulated in the Abcd1 null mice. […]
# Abcd1^-/Abcd2^-/- mice [4] = test: Treadmill test; format: in vivo; settings: double knockout mice, after 3 months of treatment with TUDCA; Figure 3B
# Method: as §2, §3, §4
# Abcd1^-/Abcd2^-/- mice [5] = test: Hindlimb clasping test; format: in vivo; settings: double knockout mice with TUDCA; untreated score 1, wild type 2; Figure 3A
# Method: as §2, §3, §4
smiles,measurement,setting,value
"C[C@H](CCC(=O)NCCS(=O)(=O)O)[C@H]1CC[C@H]2[C@@H]3[C@@H](O)C[C@@H]4C[C@H](O)CC[C@]4(C)[C@H]3CC[C@]12C [TUDCA, 3α,7β-Dihydroxy-5β-cholanoyltaurine]",food intake,[1],no effect
same,weight,[1],no effect
same,axonal damage markers,"Abcd1^-/Abcd2^-/- mice [2]; APP and synaptophysin accumulation, Figures 2A, 2B",strikingly reduced to control levels
same,numbers of reactive astrocytes and reactive microglia,"Abcd1^-/Abcd2^-/- mice [2]; GFAP and Iba-1 staining, Figure 2A",strikingly reduced to control levels
same,number of slips,Abcd1^-/Abcd2^-/- mice [3],normalized
same,time necessary to cross the bar,Abcd1^-/Abcd2^-/- mice [3],normalized
same,"ATF6, P-PERK, P-eif2α/eif2α, ATF4 and CHOP levels",Abcd1 null mice; Figure 1C,normalized
same,PDI upregulation,Abcd1 null mice; Figure 1D,prevented
same,levels of the ER chaperones GRP78 and GRP94,Abcd1 null mice; Figure 1D,normalized
same,shock times and number of shocks,Abcd1^-/Abcd2^-/- mice [4],indistinguishable from wild types
same,median clasping score,Abcd1^-/Abcd2^-/- mice [5],1.75
